Source: patent EP0126580B1 (priority 1983, dated 1984)

Conditions: rat, in vivo

Compound: C[n+]1ccccc1/C=N/O [2-PAMCl, 2-pralidoxime chloride]
- lethality: fatal to all rats
- time in which the blood concentration drops below therapeutic level (TL): 2 to 3 h
- time therapeutic plasma drug level maintained: 2-1/4 hours
- time to death after injection: ≤ 30 min
- blood drug level achieved (im): 20000 ng/mL
